Experimental data published in patent publication US9345703B2, “Kappa opioid receptor effectors and uses thereof” (University of Kansas, priority 2011, dated 2016).
Converted amounts (≈) assume the structure as drawn.

Tests used:
physchem = test: physchem
Protocol: In addition to profiling the selectivity of this class of KOR ligands, basic pharmacological properties were assessed.

[1] = Plasma protein binding, mouse; type: in vitro ADME
Source text: (§1) Plasma protein binding is a measure of a drug's efficiency to bind to the proteins within blood plasma. The less bound a drug is, the more efficiently it can traverse cell membranes or diffuse. Highly plasma protein bound rugs are confined to the vascular space, thereby having a relatively low volume of distribution. In contrast, drugs that remain largely unbound in plasma are generally available for distribution to other organs and tissues. In the instant case, the Chemotype I antagonist 1{3} was marginally available with 88.46% and 80.07% bound to 1 μM and 10 μM mouse plasma protein, respectively, and 93.96% and 88.54% bound to 1 μM and 10 μM human plasma protein, respectively.

[2] = Plasma protein binding, human; type: in vitro ADME
Source text: as §1

Plasma stability, mouse = type: in vitro ADME
Source text: Plasma stability is a measure of the stability of small molecules and peptides in plasma and is an important parameter that can strongly influence the in vivo efficacy of a test compound. Drug candidates are exposed in plasma to enzymatic processes (proteinases, esterases), and they can undergo intramolecular rearrangement or bind irreversibly (covalently) to proteins.

[3] = Hepatic microsome stability, human; type: in vitro ADME; conditions: human microsomes, 1 hour
Source text: (§2) The microsomal stability assay is commonly used to rank compounds according to their metabolic stability. This assay addresses the pharmacologic question of how long the parent compound will remain circulating in plasma within the body.

[4] = Hepatic microsome stability, mouse; type: in vitro ADME; conditions: mouse microsomes, 1 hour
Source text: as §2

5ht1a = 5ht1a (Homo sapiens, UniProt P08908); test: PDSP radioligand binding assay
Protocol: (§3) The compound was initially screened in radioligand binding assays at a constant concentration (10 μM) to identify possible activity of the compound. Results showing significant activity in the initial screen were selected for Ki determinations.
(§4) As a representative of the Chemotype II series, the MLPCN probe molecule 2{8} was subjected to a binding assay panel of 44 GPCR and other molecular targets by the Pyschoactive Drug Screening Program (PDSP) (Table 10). The compound was initially screened in a radioligand binding assay at a constant concentration (10 μM) to identify possible activity of the compound. Results showing significant activity in the initial screen were selected for Ki determinations.

5ht1e = 5ht1e (Homo sapiens, UniProt P28566); test: PDSP radioligand binding assay
Protocol: as §3, §4

5ht2b = 5ht2b (Homo sapiens, UniProt P41595); test: PDSP radioligand binding assay
Protocol: as §3, §4

5ht3 = 5ht3 (Homo sapiens, UniProt P46098); test: PDSP radioligand binding assay
Protocol: as §3, §4

5ht6 = 5ht6 (Homo sapiens, UniProt P50406); test: PDSP radioligand binding assay
Protocol: as §3, §4

5ht7 = 5ht7 (Homo sapiens, UniProt P34969); test: PDSP radioligand binding assay
Protocol: as §3, §4

Alpha1A = Alpha1A (Homo sapiens, UniProt P35348); test: PDSP radioligand binding assay
Protocol: as §3, §4

Alpha1B = Alpha1B (Homo sapiens, UniProt P35368); test: PDSP radioligand binding assay
Protocol: as §3, §4

Alpha1D = Alpha1D (Homo sapiens, UniProt P25100); test: PDSP radioligand binding assay
Protocol: as §3, §4

Alpha2B = Alpha2B (Homo sapiens, UniProt P18089); test: PDSP radioligand binding assay
Protocol: as §3, §4

Alpha2C = Alpha2C (Homo sapiens, UniProt P18825); test: PDSP radioligand binding assay
Protocol: as §3, §4

BZP Rat Brain Site = test: PDSP radioligand binding assay
Protocol: as §3, §4

Beta1 = Beta1 (Homo sapiens, UniProt P08588); test: PDSP radioligand binding assay
Protocol: as §3, §4

D2 = D2 (Homo sapiens, UniProt P14416); test: PDSP radioligand binding assay
Protocol: as §3, §4

D4 = D4 (Homo sapiens, UniProt P21917); test: PDSP radioligand binding assay
Protocol: as §3, §4

D5 = D5 (Homo sapiens, UniProt P21918); test: PDSP radioligand binding assay
Protocol: as §3, §4

GabaA = test: PDSP radioligand binding assay
Protocol: as §3, §4

H2 = H2 (Homo sapiens, UniProt P25021); test: PDSP radioligand binding assay
Protocol: as §3, §4

H3 = H3 (Homo sapiens, UniProt Q9Y5N1); test: PDSP radioligand binding assay
Protocol: as §3, §4

M1 = M1 (Homo sapiens, UniProt P11229); test: PDSP radioligand binding assay
Protocol: as §3, §4

M2 = M2 (Homo sapiens, UniProt P08172); test: PDSP radioligand binding assay
Protocol: as §3, §4

M4 = M4 (Homo sapiens, UniProt P08173); test: PDSP radioligand binding assay
Protocol: as §3, §4

M5 = M5 (Homo sapiens, UniProt P08912); test: PDSP radioligand binding assay
Protocol: as §3, §4

Sigma2 = Sigma2 (Rattus norvegicus, UniProt Q5U3Y7); test: PDSP radioligand binding assay
Protocol: as §3, §4

D3 = D3 (Homo sapiens, UniProt P35462); test: PDSP radioligand binding assay
Protocol: as §3, with “The broader selectivity of compound 1{3} was tested against additional targets and basic pharmacological properties were assessed. […] The” for “The”
as §4

DOR = DOR (Homo sapiens, UniProt P41143); test: PDSP radioligand binding assay
Protocol: as §3, with “The broader selectivity of compound 1{3} was tested against additional targets and basic pharmacological properties were assessed. […] The” for “The”
as §4

MOR = MOR (Homo sapiens, UniProt P35372); test: PDSP radioligand binding assay
Protocol: as §3, with “The broader selectivity of compound 1{3} was tested against additional targets and basic pharmacological properties were assessed. […] The” for “The”
as §4

[5] = Table 10, average of separate Ki determinations

Sigma2, sequence (Q5U3Y7 whole entry): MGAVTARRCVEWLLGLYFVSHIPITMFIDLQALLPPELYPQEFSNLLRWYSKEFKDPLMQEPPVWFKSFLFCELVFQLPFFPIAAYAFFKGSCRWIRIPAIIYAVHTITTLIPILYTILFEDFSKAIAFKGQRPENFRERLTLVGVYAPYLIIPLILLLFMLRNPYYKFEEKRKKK
MOR, sequence (P35372 whole entry): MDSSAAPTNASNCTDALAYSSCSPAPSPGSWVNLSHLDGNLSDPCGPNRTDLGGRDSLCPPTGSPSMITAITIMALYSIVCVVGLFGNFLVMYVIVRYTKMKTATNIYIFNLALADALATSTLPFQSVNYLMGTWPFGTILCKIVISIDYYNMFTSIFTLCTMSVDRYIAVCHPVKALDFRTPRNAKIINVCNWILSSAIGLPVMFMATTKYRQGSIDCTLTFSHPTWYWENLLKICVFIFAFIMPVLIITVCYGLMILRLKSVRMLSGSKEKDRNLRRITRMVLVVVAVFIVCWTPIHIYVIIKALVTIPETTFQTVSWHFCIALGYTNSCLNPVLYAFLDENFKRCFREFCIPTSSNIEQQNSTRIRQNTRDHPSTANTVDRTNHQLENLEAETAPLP
Alpha1B, sequence (P35368 whole entry): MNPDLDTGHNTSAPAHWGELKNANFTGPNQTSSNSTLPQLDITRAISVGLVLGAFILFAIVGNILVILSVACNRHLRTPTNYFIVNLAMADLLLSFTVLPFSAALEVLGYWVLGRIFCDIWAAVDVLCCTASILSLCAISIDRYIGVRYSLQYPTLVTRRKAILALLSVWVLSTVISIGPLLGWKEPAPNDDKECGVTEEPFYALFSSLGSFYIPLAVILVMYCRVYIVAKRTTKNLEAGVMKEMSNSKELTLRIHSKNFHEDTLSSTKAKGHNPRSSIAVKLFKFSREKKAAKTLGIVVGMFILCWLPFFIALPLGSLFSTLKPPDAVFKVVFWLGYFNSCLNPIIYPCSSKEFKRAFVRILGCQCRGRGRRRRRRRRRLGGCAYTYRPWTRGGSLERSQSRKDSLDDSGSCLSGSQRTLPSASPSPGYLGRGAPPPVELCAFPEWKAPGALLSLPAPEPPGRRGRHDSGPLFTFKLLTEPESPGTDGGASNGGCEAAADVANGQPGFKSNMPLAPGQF
5ht3, sequence (P46098 24-478, species assumed): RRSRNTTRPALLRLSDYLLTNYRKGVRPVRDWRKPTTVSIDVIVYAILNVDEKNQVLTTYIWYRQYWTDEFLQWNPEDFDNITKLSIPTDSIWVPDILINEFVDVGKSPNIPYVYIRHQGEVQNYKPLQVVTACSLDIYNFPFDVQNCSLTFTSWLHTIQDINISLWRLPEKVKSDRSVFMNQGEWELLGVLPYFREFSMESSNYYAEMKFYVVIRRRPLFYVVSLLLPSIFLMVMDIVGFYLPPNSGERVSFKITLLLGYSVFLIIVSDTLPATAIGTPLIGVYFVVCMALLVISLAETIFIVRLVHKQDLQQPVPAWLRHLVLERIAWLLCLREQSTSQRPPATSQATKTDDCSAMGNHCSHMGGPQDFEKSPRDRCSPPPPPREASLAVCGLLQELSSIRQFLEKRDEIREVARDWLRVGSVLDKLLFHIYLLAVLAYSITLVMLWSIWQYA
Alpha2C, sequence (P18825 whole entry): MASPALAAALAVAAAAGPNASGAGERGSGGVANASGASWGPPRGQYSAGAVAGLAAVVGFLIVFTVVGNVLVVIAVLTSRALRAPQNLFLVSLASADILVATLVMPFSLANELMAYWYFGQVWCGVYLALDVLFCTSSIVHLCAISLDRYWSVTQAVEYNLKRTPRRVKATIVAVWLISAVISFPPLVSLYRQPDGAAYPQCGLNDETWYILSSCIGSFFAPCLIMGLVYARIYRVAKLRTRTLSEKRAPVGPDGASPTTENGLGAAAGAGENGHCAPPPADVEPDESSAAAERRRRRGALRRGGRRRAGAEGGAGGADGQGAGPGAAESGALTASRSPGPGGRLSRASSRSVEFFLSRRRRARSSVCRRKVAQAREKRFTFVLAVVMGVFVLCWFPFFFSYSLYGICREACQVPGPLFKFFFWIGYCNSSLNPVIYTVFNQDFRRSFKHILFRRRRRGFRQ
M2, sequence (P08172 whole entry): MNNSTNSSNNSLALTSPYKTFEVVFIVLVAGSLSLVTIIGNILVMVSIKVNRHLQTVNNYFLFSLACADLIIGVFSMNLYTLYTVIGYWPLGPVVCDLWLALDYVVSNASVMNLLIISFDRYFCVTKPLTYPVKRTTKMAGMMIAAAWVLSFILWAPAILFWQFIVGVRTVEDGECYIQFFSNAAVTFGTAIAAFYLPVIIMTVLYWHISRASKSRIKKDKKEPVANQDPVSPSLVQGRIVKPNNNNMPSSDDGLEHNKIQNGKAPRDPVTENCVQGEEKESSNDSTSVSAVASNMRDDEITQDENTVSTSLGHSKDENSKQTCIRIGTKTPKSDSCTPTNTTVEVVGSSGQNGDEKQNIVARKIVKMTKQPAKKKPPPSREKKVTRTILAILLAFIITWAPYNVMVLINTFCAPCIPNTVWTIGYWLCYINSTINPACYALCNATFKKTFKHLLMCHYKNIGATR
M5, sequence (P08912 whole entry): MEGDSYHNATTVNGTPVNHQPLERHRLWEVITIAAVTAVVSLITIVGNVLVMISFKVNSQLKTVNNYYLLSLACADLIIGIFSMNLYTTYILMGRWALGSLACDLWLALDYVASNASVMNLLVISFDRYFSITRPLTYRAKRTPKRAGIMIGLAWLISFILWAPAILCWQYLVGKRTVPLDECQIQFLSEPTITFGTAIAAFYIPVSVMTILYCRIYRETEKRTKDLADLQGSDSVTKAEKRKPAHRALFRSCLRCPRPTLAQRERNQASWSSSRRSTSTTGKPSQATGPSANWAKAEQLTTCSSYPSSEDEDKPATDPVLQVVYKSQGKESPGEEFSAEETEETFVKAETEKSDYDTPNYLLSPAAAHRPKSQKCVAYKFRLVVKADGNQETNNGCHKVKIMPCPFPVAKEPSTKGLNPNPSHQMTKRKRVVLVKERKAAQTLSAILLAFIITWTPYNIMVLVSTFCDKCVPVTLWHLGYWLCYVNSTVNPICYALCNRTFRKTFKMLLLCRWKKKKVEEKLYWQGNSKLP
D5, sequence (P21918 whole entry): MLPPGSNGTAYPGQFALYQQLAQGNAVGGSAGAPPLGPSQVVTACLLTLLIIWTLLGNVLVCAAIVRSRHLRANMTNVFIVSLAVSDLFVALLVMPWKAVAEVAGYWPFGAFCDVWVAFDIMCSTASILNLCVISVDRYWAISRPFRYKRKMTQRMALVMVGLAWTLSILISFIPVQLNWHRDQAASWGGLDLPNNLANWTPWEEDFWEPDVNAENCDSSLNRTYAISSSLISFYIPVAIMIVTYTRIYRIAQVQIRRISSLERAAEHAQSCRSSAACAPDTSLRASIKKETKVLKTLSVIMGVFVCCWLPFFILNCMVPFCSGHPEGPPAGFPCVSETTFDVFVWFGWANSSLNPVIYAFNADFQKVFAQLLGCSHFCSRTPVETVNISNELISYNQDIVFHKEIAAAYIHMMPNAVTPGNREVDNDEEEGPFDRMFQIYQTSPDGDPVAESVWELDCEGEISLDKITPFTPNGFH
H3, sequence (Q9Y5N1 whole entry): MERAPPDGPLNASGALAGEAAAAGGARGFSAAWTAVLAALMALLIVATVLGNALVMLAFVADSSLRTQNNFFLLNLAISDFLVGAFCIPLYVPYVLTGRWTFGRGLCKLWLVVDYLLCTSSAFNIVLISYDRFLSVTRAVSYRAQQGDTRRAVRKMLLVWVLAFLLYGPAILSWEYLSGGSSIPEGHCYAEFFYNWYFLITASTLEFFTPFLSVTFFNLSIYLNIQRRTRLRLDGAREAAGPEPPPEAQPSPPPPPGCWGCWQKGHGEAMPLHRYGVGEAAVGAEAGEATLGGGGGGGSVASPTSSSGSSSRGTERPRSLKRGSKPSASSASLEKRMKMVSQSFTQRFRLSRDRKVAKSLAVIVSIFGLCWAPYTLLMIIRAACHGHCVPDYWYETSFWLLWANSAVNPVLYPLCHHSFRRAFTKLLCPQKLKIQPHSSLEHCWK
5ht1e, sequence (P28566 whole entry, species assumed): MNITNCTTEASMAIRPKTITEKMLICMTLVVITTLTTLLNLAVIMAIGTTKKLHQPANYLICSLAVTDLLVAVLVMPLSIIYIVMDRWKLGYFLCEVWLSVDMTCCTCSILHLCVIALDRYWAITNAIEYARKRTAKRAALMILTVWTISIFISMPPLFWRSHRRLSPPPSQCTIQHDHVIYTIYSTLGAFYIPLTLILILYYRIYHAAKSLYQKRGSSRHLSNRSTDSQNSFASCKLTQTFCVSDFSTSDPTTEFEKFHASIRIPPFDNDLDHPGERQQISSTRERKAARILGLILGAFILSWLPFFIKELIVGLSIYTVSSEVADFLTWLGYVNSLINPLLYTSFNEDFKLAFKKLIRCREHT
D4, sequence (P21917 whole entry): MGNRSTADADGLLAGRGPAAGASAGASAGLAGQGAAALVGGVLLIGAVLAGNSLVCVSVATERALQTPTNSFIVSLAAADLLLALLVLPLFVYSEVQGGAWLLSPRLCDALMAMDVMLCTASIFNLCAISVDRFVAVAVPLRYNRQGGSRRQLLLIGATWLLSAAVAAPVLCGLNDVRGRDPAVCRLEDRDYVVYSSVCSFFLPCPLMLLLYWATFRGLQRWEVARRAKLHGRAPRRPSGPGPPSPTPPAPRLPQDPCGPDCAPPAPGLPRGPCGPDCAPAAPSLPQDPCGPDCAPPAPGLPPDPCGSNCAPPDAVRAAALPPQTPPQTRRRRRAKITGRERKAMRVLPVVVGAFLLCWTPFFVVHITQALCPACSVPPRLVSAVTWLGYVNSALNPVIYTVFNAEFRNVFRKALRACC

With `COc1ccc(N2CCN(CCCNC(=O)Cn3c(=O)c4cccn4c4c(C)ccnc43)CC2)cc1` [Compound 1{3}, N-(3-(4-(4-Methoxyphenyl)piperazin-1-yl)propyl)-2-(1-methyl-6-oxopyrido[2,3-e]pyrrolo[1,2-a]pyrazin-5(6H)-yl)acetamide] the solubility (physchem; aqueous buffer) was > 90 µg/mL, the solubility (physchem; pH 5) was 96.6 µg/mL (≈ 198 µM) and the solubility (physchem; pH 6.2) was 90.6 µg/mL (≈ 185 µM). The fraction unbound at 1 μM ([1]; plasma, mouse, 1 μM, read-out: bound to plasma protein (converted)) was 0.115, the fraction unbound at 10 μM ([1]; plasma, mouse, 10 μM, read-out: bound to plasma protein (converted)) was 0.199 and the fraction unbound at 1 μM ([2]; plasma, human, 1 μM, read-out: bound to plasma protein (converted)) was 0.0604. For the same compound, the fraction unbound at 10 μM ([2]; plasma, human, 10 μM, read-out: bound to plasma protein (converted)) was 0.115, the “plasma stability, remaining” value (Plasma stability, mouse; mouse, plasma, 3 h) was 100% and the “microsomal stability, remaining” value [3] was 22%. For the same compound, the “microsomal stability, remaining” value [4] was 7.3%, the Ki (5ht1a; Table 5) was > 10 µM and the Ki (5ht1e; Table 5) was > 10 µM. For the same compound, the Ki (5ht2b; Table 5) was 1.92 µM, the Ki (5ht3; Table 5) was > 10 µM and the Ki (5ht6; Table 5) was > 10 µM. For the same compound, the Ki (5ht7; Table 5) was > 10 µM, the Ki (Alpha1A; Table 5) was > 10 µM and the Ki (Alpha1B; Table 5) was > 10 µM. For the same compound, the Ki (Alpha1D; Table 5) was > 10 µM, the Ki (Alpha2B; Table 5) was 7.7 µM and the Ki (Alpha2C; Table 5) was 0.694 µM. The Ki (BZP Rat Brain Site; Table 5) was > 10 µM, the Ki (Beta1; Table 5) was > 10 µM and the Ki (D2; Table 5) was 1.35 µM. The Ki (D4; Table 5) was > 10 µM, the Ki (D5; Table 5) was > 10 µM and the Ki (GabaA; Table 5) was > 10 µM. For the same compound, the Ki (H2; Table 5) was 3.5 µM, the Ki (H3; Table 5) was > 10 µM and the Ki (M1; Table 5) was > 10 µM. For the same compound, the Ki (M2; Table 5) was > 10 µM, the Ki (M4; Table 5) was > 10 µM and the Ki (M5; Table 5) was 6.4 µM. For the same compound, the Ki (Sigma2; Table 5) was > 10 µM, the Ki (D3; Table 5) was 0.25 µM and the Ki (DOR; Table 5) was 1.44 µM. For the same compound, the Ki (MOR; Table 5) was 1.58 µM.
For `Clc1ccc(CSc2nnc(-c3ccccn3)n2Cc2ccco2)cc1Cl` [Compound 2{8}], the “solubility in aqueous buffer” value (physchem; pH 5.0) was < 0.1 µg/mL, the “solubility in aqueous buffer” value (physchem; pH 6.2) was 0.29 µg/mL (≈ 0.695 µM) and the “solubility in aqueous buffer” value (physchem; pH 7.4) was 0.14 µg/mL (≈ 0.335 µM). The bound to plasma ([1]; mouse plasma) was > 99%, the bound to plasma ([2]; human plasma) was > 99% and the “plasma stability, remaining” value (Plasma stability, mouse; mouse plasma, 3 hours) was 100%. The “microsomal stability, remaining” value [3] was 0.03%, the “microsomal stability, remaining” value [4] was 0.03% and the Ki (5ht1a; Table 10) was > 10 µM. The Ki (5ht1e; Table 10) was > 10 µM, the Ki (5ht2b; Table 10) was 1.24 µM and the Ki (5ht3; Table 10) was > 10 µM. The Ki (5ht6; Table 10) was > 10 µM, the Ki (5ht7; Table 10) was > 10 µM and the Ki (Alpha1A; Table 10) was > 10 µM. For the same compound, the Ki (Alpha1B; Table 10) was > 10 µM, the Ki (Alpha1D; Table 10) was > 10 µM and the Ki (Alpha2B; Table 10) was 5.53 µM. The Ki (Alpha2C; Table 10) was 9.6 µM, the Ki (BZP Rat Brain Site; Table 10) was > 10 µM and the Ki (Beta1; Table 10) was > 10 µM. The Ki (D2; Table 10) was > 10 µM, the Ki (D4; Table 10) was > 10 µM and the Ki (D5; Table 10) was 7.02 µM. For the same compound, the Ki (GabaA; Table 10) was > 10 µM, the Ki (H2; Table 10) was > 10 µM and the Ki (H3; Table 10) was > 10 µM. The Ki (M1; Table 10) was > 10 µM, the Ki (M2; Table 10) was > 10 µM and the Ki (M4; Table 10) was > 10 µM. The Ki (M5; Table 10) was 4.42 µM, the Ki (Sigma2; Table 10) was 2.91 µM and the Ki (D3; Table 10) was > 10 µM. For the same compound, the Ki (DOR; [5]) was 5.35 µM and the Ki (MOR; [5]) was 1.9 µM.
